Earlier results as cited in US10456383B2, “Targeted approach in the management of Epidermolysis bullosa” (The Board of Trustees of the Leland Stanford Junior …, priority 2017, dated 2019).

Experiments:
[1] = topical formulations, all cases; standard serum levels required for immunosuppression 5-15 ng/ml
[2] = ointment plasticized base containing no water (PCCA)

systemic level of rapamycin [1]: less than 2 ng/ml
sirolimus stability [2]: at least 6 months
SMILES: CO[C@H]1C[C@@H]2CC[C@@H](C)[C@@](O)(O2)C(=O)C(=O)N2CCCC[C@H]2C(=O)O[C@H]([C@H](C)C[C@@H]2CC[C@@H](O)[C@H](OC)C2)CC(=O)[C@H](C)/C=C(\C)[C@@H](O)[C@@H](OC)C(=O)[C@H](C)C[C@H](C)/C=C/C=C/C=C/1C [Sirolimus]
